In US12054509B2, “Antimicrobial compounds, compositions, and uses thereof” (Lakewood Amedex, Inc., priority 2017, dated 2024):
Read-outs that look alike come from different tables or passages of the source.

Experiments:
Experiment in all cases: MIC against a single isolate (Example 26)
Type in all cases: cell-based
Pseudomonas aeruginosa = conditions: read-out: P. aeruginosa MIC
Procedure: (§1) Bacterial strains evaluated in this study include Escherichia coli, Klebsiella spp, Serratia marcescens, Proteus mirabilis/vulgaris, Citrobacter spp, Providencia spp, Morganella morganii, Pseudomonas aeruginosa, Staphylococcus aureus (MRSA only), and Enterococcus faecalis. Nu-8 test solutions are adjusted to pH 3.5 with citric acid, and MIC is evaluated per the CLSI methods in Mueller-Hinton broth supplemented accordingly to facilitate growth of specific strains.
(§2) MIC was determined as per Example 9 using LAI-101, LAI-102, Nu-10, LAI-105, LAI-106, Nu-3, and Nu-8 against a single isolate of Escherichia coli. Pseudomonas aeruginosa, Staphylococcus aureus (MRSA only), and Candida Albicans. For all microbe species, the LAI-101, LAI-102, Nu-10, LAI-105, and LAI-106 all perform at least as well as, and in many experiments better than, Nu-8 and Nu-3, which are both already quite active compounds.

Candida Albicans = conditions: read-out: C. albicans MIC
Procedure: as §1, §2

[1] = test system: Staphylococcus aureus (MRSA only); conditions: read-out: S. aureus MIC
Procedure: as §1, §2

Escherichia coli = conditions: read-out: E. coli MIC
Procedure: as §1, §2

Compound	MIC (Pseudomonas aeruginosa; single isolate)	MIC (Candida Albicans; single isolate)	MIC ([1]; single isolate)	MIC (Escherichia coli; single isolate)	MIC (Pseudomonas aeruginosa)	MIC (Candida Albicans)	MIC [1]	MIC (Escherichia coli)
CCCCOP(=O)(O)OC[C@H]1O[C@@H](n2cnc3c(N)ncnc32)[C@H](OC)[C@@H]1OP(=O)(O)OCCCC [LAI-106, ((2R,3R,4R,5R)-5-(6-amino-9H-purin-9-yl)-3-((butoxy(hydroxy)phosphoryl)oxy)-4-methoxytetrahydrofuran-2-yl)methyl butyl hydrogen phosphate]	5000 µg/mL	25000 µg/mL	5000 µg/mL	1000 µg/mL				
Nc1ncnc2c1ncn2[C@H]1C[C@H](OP(=O)(O)OC2CCCCC2)[C@@H](COP(=O)(O)OC2CCCCC2)O1 [LAI-105, ((2R,3S,5R)-5-(6-amino-9H-purin-9-yl)-3-(((cyclohexyloxy)(hydroxy)phosphoryl)oxy)tetrahydrofuran-2-yl)methyl cyclohexyl hydrogen phosphate]	5000 µg/mL	> 5000 µg/mL	> 5000 µg/mL	> 5000 µg/mL				
Nc1ccn([C@H]2C[C@H](OP(=O)(O)OCc3ccccc3)[C@@H](COP(=O)(O)OCc3ccccc3)O2)c(=O)n1 [LAI-102, ((2R,3S,5R)-5-(4-amino-2-oxopyrimidin-1(2H)-yl)-3-(((benzyloxy)(hydroxy)-phosphoryl)oxy)tetrahydrofuran-2-yl)methyl benzyl hydrogen phosphate]					25000 µg/mL	50000 µg/mL	25000 µg/mL	5000 µg/mL
